Reference: US20160175485A1, “COMBINATION THERAPY TO PROMOTE WOUND HEALING” (THE REGENTS OF THE UNIVERSITY OF CALIFORNIA, priority 2013, published 2016)

Columns and labels:
[1] = test system: monocytic cell line and rat macrophages; details: supraphysiologic levels of EPI (5000-10,000 ng/ml); cited from earlier work
[2] = test system: C57BL/6J mice; assay: Full-thickness cutaneous wounds in EPI stressed mice (osmotic pumps); format: in vivo, mouse; details: for wound closure: EPI 7 mg/kg body weight/day, ICI 0.7 mg/kg body weight/day by osmotic pump; for TLR2 expression in wound tissue: day 7 after injury; for IL-6 levels in the wound tissue / phosphorylation of ERK1/2 in wounds: mouse, in vivo
Description: C57BL/6J (male; 8-10 week age; Jax Mice) with ad libitum access to food and water were anesthetized using isoflurane and one 6 mm circular diameter full-thickness wound was placed on the dorsal shaved skin β1). Micro-osmotic pumps (0.25 μl/hour; Alzet micro-osmotic pump Model: 1002, Alzet) were implanted on the right flank of the mice to deliver 7 mg/kg body weight/day EPI and 0.7 mg/kg body weight/day of ICI) as we have previously reported (11-13,30). At 7 or 11 days after injury, the mice were euthanized, the wound tissue was harvested by 8 mm punch excision and stored frozen or formalin—fixed until further analysis. Animal protocols were approved by the IACUC at UC Davis.

[3] = test system: BM-MSC; assay: Real time PCR (TLR2, ADRB2 mRNA) in BM-MSC; format: cell-based, human
Description: (§1) Epinephrine (EPI: Sigma) and TLR2 ligands (macrophage activating lipoprotein-2: MALP2—that specifically activates TLR2/6 heterodimerization, and heat killed Staphylococcus aureus: HKSA; Invivogen) treatments were carried out at the indicated times and concentrations. All the cells were maintained in 0.5% fetal bovine serum containing culture medium overnight prior to treatment. Cells were exposed to different treatments in fresh serum-free medium. In some experiments, cells were pretreated for 30 minutes with Timolol (10 μM; Sigma) or ICI-118, 551 (ICI; 10 μM; Tocris) followed by EPI and MALP2 treatment as described previously (11-13, 30).
mRNA expression was determined by real-time PCR (RT-PCR), using sequence-specific primers and probes. Total RNA was extracted from the cells using Qiagen RNeasy mini kit. The first strand of cDNA was synthesized using 1 μg of total RNA. cDNA (50 ng) was amplified using primer probe sets for TLR2, beta-2-adrenergic receptor (ADRB2) and three housekeeping genes: beta-2-microglobulin, GAPDH, and RPLPO using standard cycling parameters. Data were calculated using the 2-ΔΔCt method and are presented as fold change (ratio of transcripts of gene normalized to the three house-keeping genes) (11-13, 31).

[4] = test system: BM-MSC; assay: Western blots in BM-MSC; format: cell-based, human
Description: as §1
(§2) Twenty five μg of total protein was resolved, transferred, and probed with antibodies for β2-AR (Abcam), phospho beta-adrenergic receptor activated kinase-1 (BARK-1/GRK2 referred to as BARK-1 from here after; GeneTex), TLR2 (Imgenex) Myeloid differentiation factor 88 (MyD88; Imgenex), phospho interleukin receptor activated kinase-1 (pIRAK-1 and IRAK-1; Cell Signaling), phospho ERK1/2 (Santacruz), phenylethanolamine N-methyltransferase (PNMT) and tyrosine hydroxylase (TH), and stripped membranes were further incubated with respective total antibodies or GAPDH or α-tubulin. TLR2 (Imgenex) and β2-AR (Santacruz) antibodies were used for co-immunoprecipation assays and antibody protein complexes were further probed with above antibodies β1). Protein A/G-sepharose beads and isotype matched IgG antibodies were used as negative controls in all the co-immunoprecipitation experiments along with the antibody used for the pull down as a positive control. Band intensities were determined as described previously and normalized to GAPDH/α-tubulin or total protein (BARK-1) and densitometric ratios are presented as fold change vs control β1). For some experiments, cell lysates from three independent experiments were pooled to get enough protein for the assay and repeated three times for densitometry purposes.

[5] = test system: murine macrophages; details: epinephrine pretreatment; cited from earlier work
[6] = test system: BM-MSC; assay: Secreted IL-6 ELISA in BM-MSC; format: cell-based, human; details: for increase in IL-6 secretion as compared to untreated control cells: four hours, EPI 50 nM, MALP2 100 ng/ml, HKSA 10^4 cells/ml
Description: (§3) Human bone marrow aspirations obtained from four healthy donors were purchased from Lonza. MSC were harvested from bone marrow (BM) following established protocols (26, 27), and used between passages 3-5. Characterization of MSC included differentiation into osteogenic and adipogenic lineage cells, as described previously (27). The stem cell research oversight (SCRO) review board at the University of California, Davis approved all the human cell protocols.
as §1
(§4) Levels of interleukin-6 (IL-6) were measured with an ELISA kit (R&D systems). IL-6 levels were normalized to total cell protein and expressed as pg/μg protein β1).

[7] = test system: NHK; assay: Secreted IL-6 ELISA in NHK; format: cell-based, human; details: for increase in IL-6 secretion as compared to untreated NHK: four hours, EPI 50 nM, MALP2 100 ng/ml, HKSA 10^4 cells/ml
Description: NHK were isolated from human neonatal foreskins, cultured and maintained, as reported earlier (28,29). NHKs isolated from at least three different foreskins and between passages 3 and 7 were used in all the experiments. The Institutional Review Board at UC Davis approved the protocol for obtaining discarded neonatal foreskins.
as §1, §4

[8] = test system: Bone marrow MSCs; assay: BM-MSC migration tracked for 12 hours after antagonist treatment (FIG. 11); format: cell-based, human; details: treated 1 hour, tracked 12 hours
Description: FIG. 11 illustrates that results are not limited to one class of beta adrenergic antagonist. Bone marrow MSCs from two different individuals were cultured and treated with either a non-specific beta adrenergic receptor antagonist (timolol) or a beta 2 adrenergic receptor specific antagonist (ICI 118,551) at stated concentrations for 1 hour, then cell migration was tracked for 12 hours. For each experiment 80-90 cells were tracked. Means+/−SEM shown, *=p<0.005.

[9] = test system: NHK; assay: Scratch wound assay in confluent NHK cultures; format: cell-based, human; details: 30 minutes pretreatment; for IL-6 secretion in wounded NHK confluent sheets: antagonists 10 μM; for effect on EPI+MALP2 or EPI+HKSA delayed NHK migration: scratch-wounded NHK, antagonist 10 μM
Description: as §4
The rate of healing scratch wounds made in confluent NHK cultures was determined as reported previously (30, 32). Briefly, cells were pretreated with 10 μg/ml mitomycin (EMD Millipore) for 1 hr to inhibit cell proliferation that could skew the data analysis. Wounded cultures were incubated in growth medium (control) containing EPI, TLR2 ligands, and/or Timolol or ICI. Velocity Image analysis software (Perkin Elmer) was used to measure the scratch wound area, which is expressed as percent closed wound.

[10] = cited from earlier work
[11] = test system: RAW 264.7 macrophages; details: cited from earlier work
[12] = test system: NHK; assay: Co-immunoprecipitation with β2-AR and TLR2 antibody in NHK; format: cell-based, human; details: MALP2 100 ng/ml
Description: as §2

[13] = test system: NHK; assay: Western blots (PNMT, TH) in NHK; format: cell-based, human
Description: as §1
Twenty five μg of total protein was resolved, transferred, and probed with antibodies for β2-AR (Abcam), phospho beta-adrenergic receptor activated kinase-1 (BARK-1/GRK2 referred to as BARK-1 from here after; GeneTex), TLR2 (Imgenex) Myeloid differentiation factor 88 (MyD88; Imgenex), phospho interleukin receptor activated kinase-1 (pIRAK-1 and IRAK-1; Cell Signaling), phospho ERK1/2 (Santacruz), phenylethanolamine N-methyltransferase (PNMT) and tyrosine hydroxylase (TH), and stripped membranes were further incubated with respective total antibodies or GAPDH or α-tubulin. TLR2 (Imgenex) and β2-AR (Santacruz) antibodies were used for co-immunoprecipation assays and antibody protein complexes were further probed with above antibodies β1). […]

[14] = test system: NHK; assay: HPLC detection of catecholamines in NHK supernatants; format: cell-based, human
Description: (§5) Cell culture samples from at least from three independent experiments were acidified with perchloric acid to 0.2N prior to storage at −80° C. for future analysis. The supernatant were applied to conditioned MonoSpin® PBA solid phase extraction spin columns (GL Sciences) and purifications were performed according to the manufacturer's specifications. Catecholamines were eluted in 200 μL of 2% acetic acid.
(§6) HPLC separation was performed using a Synergi™ 4 um Fusion-reverse phase 250×4.6 mm column (Phenomenex) and a HP series 1050 pump and auto injector system. The mobile phase for chromatographic separation was a modification of that used by Leis et al (33). Detection of catecholamine compounds was performed using a LC-4C amperometric detector (Bioanalytical Systems) using potential of […]. Catecholamine levels are presented as pg/μg cell protein.

[15] = test system: BM-MSC; assay: Single-cell migration of BM-MSC; format: cell-based, human; details: EPI 50 nM, MALP2 100 ng/ml, Timolol 10 μM, 30 min pretreatment
Description: as §3, §1

[16] = test system: BM-MSC; assay: HPLC detection of catecholamines in BM-MSC supernatants; format: cell-based, human; details: MALP2 100 ng/ml
Description: as §5, §6

[17] = BM-MSC, Timolol 10 μM, 30 min pretreatment

## CNC[C@H](O)c1ccc(O)c(O)c1 [EPI, Epinephrine]
[1]
  TLR4 mRNA expression: decreases
[2]
  wound closure: significantly decreased
  TLR2 expression in wound tissue: increased
  IL-6 levels in the wound tissue: significantly elevated
  phosphorylation of ERK1/2 in wounds: Decreased
[3]; EPI 50 nM
  TLR2 mRNA expression: significantly increased
[4]
  BARK-1 phosphorylation: increased
[4]; EPI 50 nM
  MyD88 protein expression: significantly elevated
  TLR2 protein levels: significantly increased
[5]
  TNF-α production with LPS stimulation: significantly increases
[6]; BM-MSC
  increase in IL-6 secretion as compared to untreated control cells: 3.8 fold
[6]; EPI 50-1000 nM, 4 hr and 24 hr
  EPI concentration of maximal induction of IL-6 secretion: 50 nM
[7]
  increase in IL-6 secretion as compared to untreated NHK: 16 fold

## Cc1ccc(OCC(O)C(C)NC(C)C)c2c1CCC2 (stereo not drawn) [ICI 118,551]
[2]
  wound closure: reversed
  TLR2 expression in wound tissue: reversed
  IL-6 levels in the wound tissue: decreased
  phosphorylation of ERK1/2 in wounds: increases
[8]
  migratory speed of bone marrow derived MSC: increase migratory speed
[9]
  IL-6 secretion in wounded NHK confluent sheets: reverses
  effect on EPI+MALP2 or EPI+HKSA delayed NHK migration: reverses
[7]
  IL-6 release by human keratinocytes under β adrenergic receptor antagonist: suppression

## CC(C)(C)NCC(O)COc1cccc2c1CC(O)C(O)C2 (stereo not drawn) [Nadolol]
[10]
  lipid solubility: low

## CC(C)(C)NC[C@H](O)COc1nsnc1N1CCOCC1 [Timolol]
[6]; [17]
  decrease of EPI+HKSA induced IL-6 secretion by pretreatment: 1.5 fold
  decrease of EPI+MALP2 induced IL-6 secretion by pretreatment: 33 fold
[6]; BM-MSC, mean±SD, antagonist 10 μM, 30 min pretreatment
  IL-6 levels: 4.8±2.7 pg/μg protein
[8]
  migratory speed of bone marrow derived MSC: increase migratory speed
[9]
  IL-6 secretion in wounded NHK confluent sheets: reverses
  effect on EPI+MALP2 or EPI+HKSA delayed NHK migration: reverses
[7]
  IL-6 release by human keratinocytes under β adrenergic receptor antagonist: suppression

## OCc1cc(C(O)CNCCCCCCOCCCCc2ccccc2)ccc1O (stereo not drawn) [salmeterol]
[11]
  IL-1β and IL-6 protein production: significant increase
  increase in IL-1β transcripts: 80 fold
  increase in IL-6 transcripts: 8 fold

## MALP2
[12]
  β2-AR expression and BARK-1 phosphorylation in TLR2 immunoprecipitates: noticeable increase
[13]
  PNMT and TH enzymes: induced
[14]; MALP2 treated
  catecholamine response of NHKs relative to BM-MSC: 2-4 fold
[14]; NHK, MALP2 100 ng/ml
  EPI and norepinephrine levels in cell culture supernatants: increased
[15]
  inhibition in migratory speed: 15%
[3]; MALP2 100 ng/ml
  β2-adrenergic receptor mRNA expression: significantly up-regulated
[16]
  EPI and norepinephrine levels in cell culture supernatants: increased
[4]
  BARK-1 phosphorylation: significantly increased
  PNMT and TH enzymes: induced
[4]; MALP2 100 ng/ml
  β2-adrenergic receptor protein expression: significantly up-regulated
[6]; BM-MSC
  increase in IL-6 secretion as compared to untreated control cells: 2.6 fold
[7]
  increase in IL-6 secretion as compared to untreated NHK: 8.8 fold

## Polymyxin B
[6]; BM-MSC, endotoxin control
  effect of pretreatment on EPI or MALP2 induced IL-6 levels: did not affect
